# Source: patent US20140357713A1, “ANTIMICROBIAL COMPOUNDS AND METHODS OF USE” (NexMed Holdings, Inc., priority 2012, published 2014)
# Legend:
# Test in all cases: Extended time kill study, Example 34 (0 to 24 h)
# Format in all cases: cell-based
# Candida albicans = tested on: Candida albicans
# Description: (§1) Time kill studies. Strain suspensions were prepared as described above for the MIC test, and strain suspensions and compound solutions were mixed in the same volume. Samples were removed at specified times including 0 min, 30 sec, 1 min and 5 mins, were diluted in the test medium and streaked on agar. Colonies were counted after 24 to 48 hrs of incubation.
# (§2) The time kill studies of Example 33 were extended for five compounds (Nex-59, Nex-60, Nex-61, Nex-62, and Nex-88) using the same methods at longer time periods and at higher multiples of MIC. Nex-88 is a code number for DDAIP.HCl from a different supplier.
# Aspergillus niger = tested on: Aspergillus niger
# Description: as §1, §2
# Staphylococcus aureus = tested on: Staphylococcus aureus
# Description: as §1, §2
# Escherichia coli = tested on: Escherichia coli
# Description: as §1, §2
# Pseudomonas aeruginosa = tested on: Pseudomonas aeruginosa
# Description: as §1, §2
smiles,measurement,setting,value
"CCCCCCCCCCCCOC(=O)C(C)NCCN(CC)CC.Cl (stereo not drawn) [Nex-62, Dodecyl 2-((2-(diethylamino)ethyl)amino)propanoate dihydrochloride]",Viable counts in Log10 CFU/mL,"Candida albicans; 1 × MIC, 1 h",5.75 Log10 CFU/mL
same,Viable counts in Log10 CFU/mL,"Candida albicans; 1 × MIC, 2 h",5.78 Log10 CFU/mL
same,Viable counts in Log10 CFU/mL,"Candida albicans; 1 × MIC, 4 h",6.04 Log10 CFU/mL
same,Viable counts in Log10 CFU/mL,"Candida albicans; 1 × MIC, 6 h",6.21 Log10 CFU/mL
same,Viable counts in Log10 CFU/mL,"Candida albicans; 1 × MIC, 24 h",>6 Log10 CFU/mL
same,Viable counts in Log10 CFU/mL,"Candida albicans; 1 × MIC, 0 h",5.74 Log10 CFU/mL
same,Viable counts in Log10 CFU/mL,"Candida albicans; 2 × MIC, 1 h",5.68 Log10 CFU/mL
same,Viable counts in Log10 CFU/mL,"Candida albicans; 2 × MIC, 2 h",5.67 Log10 CFU/mL
same,Viable counts in Log10 CFU/mL,"Candida albicans; 2 × MIC, 4 h",5.68 Log10 CFU/mL
same,Viable counts in Log10 CFU/mL,"Candida albicans; 2 × MIC, 6 h",5.58 Log10 CFU/mL
same,Viable counts in Log10 CFU/mL,"Candida albicans; 2 × MIC, 24 h",>6 Log10 CFU/mL
same,Viable counts in Log10 CFU/mL,"Candida albicans; 2 × MIC, 0 h",5.76 Log10 CFU/mL
same,Viable counts in Log10 CFU/mL,"Candida albicans; 4 × MIC, 1 h",5.32 Log10 CFU/mL
same,Viable counts in Log10 CFU/mL,"Candida albicans; 4 × MIC, 2 h",5.33 Log10 CFU/mL
same,Viable counts in Log10 CFU/mL,"Candida albicans; 4 × MIC, 4 h",5.00 Log10 CFU/mL
same,Viable counts in Log10 CFU/mL,"Candida albicans; 4 × MIC, 6 h",4.53 Log10 CFU/mL
same,Viable counts in Log10 CFU/mL,"Candida albicans; 4 × MIC, 24 h",<1 Log10 CFU/mL
same,Viable counts in Log10 CFU/mL,"Candida albicans; 4 × MIC, 0 h",5.69 Log10 CFU/mL
same,Viable counts in Log10 CFU/mL,"Aspergillus niger; 1 × MIC, 1 h",5.53 Log10 CFU/mL
same,Viable counts in Log10 CFU/mL,"Aspergillus niger; 1 × MIC, 2 h",5.51 Log10 CFU/mL
same,Viable counts in Log10 CFU/mL,"Aspergillus niger; 1 × MIC, 4 h",5.15 Log10 CFU/mL
same,Viable counts in Log10 CFU/mL,"Aspergillus niger; 1 × MIC, 6 h",4.78 Log10 CFU/mL
same,Viable counts in Log10 CFU/mL,"Aspergillus niger; 1 × MIC, 24 h",4 Log10 CFU/mL
same,Viable counts in Log10 CFU/mL,"Aspergillus niger; 1 × MIC, 0 h",5.51 Log10 CFU/mL
same,Viable counts in Log10 CFU/mL,"Aspergillus niger; 2 × MIC, 1 h",5.48 Log10 CFU/mL
same,Viable counts in Log10 CFU/mL,"Aspergillus niger; 2 × MIC, 2 h",5.57 Log10 CFU/mL
same,Viable counts in Log10 CFU/mL,"Aspergillus niger; 2 × MIC, 4 h",5.08 Log10 CFU/mL
same,Viable counts in Log10 CFU/mL,"Aspergillus niger; 2 × MIC, 6 h",5.38 Log10 CFU/mL
same,Viable counts in Log10 CFU/mL,"Aspergillus niger; 2 × MIC, 24 h",5.58 Log10 CFU/mL
same,Viable counts in Log10 CFU/mL,"Aspergillus niger; 2 × MIC, 0 h",5.49 Log10 CFU/mL
same,Viable counts in Log10 CFU/mL,"Aspergillus niger; 4 × MIC, 1 h",5.49 Log10 CFU/mL
same,Viable counts in Log10 CFU/mL,"Aspergillus niger; 4 × MIC, 2 h",5.49 Log10 CFU/mL
same,Viable counts in Log10 CFU/mL,"Aspergillus niger; 4 × MIC, 4 h",5.00 Log10 CFU/mL
same,Viable counts in Log10 CFU/mL,"Aspergillus niger; 4 × MIC, 6 h",5.20 Log10 CFU/mL
same,Viable counts in Log10 CFU/mL,"Aspergillus niger; 4 × MIC, 24 h",3.85 Log10 CFU/mL
same,Viable counts in Log10 CFU/mL,"Aspergillus niger; 4 × MIC, 0 h",5.56 Log10 CFU/mL
same,"Viable counts, Staphylococcus aureus time kill study","Staphylococcus aureus; 1 × MIC, 1 h",6.00 Log10 CFU/mL
same,"Viable counts, Staphylococcus aureus time kill study","Staphylococcus aureus; 1 × MIC, 2 h",5.66 Log10 CFU/mL
same,"Viable counts, Staphylococcus aureus time kill study","Staphylococcus aureus; 1 × MIC, 4 h",4.70 Log10 CFU/mL
same,"Viable counts, Staphylococcus aureus time kill study","Staphylococcus aureus; 1 × MIC, 6 h",4.48 Log10 CFU/mL
same,"Viable counts, Staphylococcus aureus time kill study","Staphylococcus aureus; 1 × MIC, 24 h",<1 Log10 CFU/mL
same,"Viable counts, Staphylococcus aureus time kill study","Staphylococcus aureus; 1×MIC, time 0",6.23 Log10 CFU/mL
same,"Viable counts, Staphylococcus aureus time kill study","Staphylococcus aureus; 2 × MIC, 1 h",5.30 Log10 CFU/mL
same,"Viable counts, Staphylococcus aureus time kill study","Staphylococcus aureus; 2 × MIC, 2 h",<3 Log10 CFU/mL
same,"Viable counts, Staphylococcus aureus time kill study","Staphylococcus aureus; 2 × MIC, 4 h",<3 Log10 CFU/mL
same,"Viable counts, Staphylococcus aureus time kill study","Staphylococcus aureus; 2 × MIC, 6 h",<3 Log10 CFU/mL
same,"Viable counts, Staphylococcus aureus time kill study","Staphylococcus aureus; 2 × MIC, 24 h",<1 Log10 CFU/mL
same,"Viable counts, Staphylococcus aureus time kill study","Staphylococcus aureus; 2 × MIC, time 0",6.25 Log10 CFU/mL
same,"Viable counts, Staphylococcus aureus time kill study","Staphylococcus aureus; 4 × MIC, 1 h",5.30 Log10 CFU/mL
same,"Viable counts, Staphylococcus aureus time kill study","Staphylococcus aureus; 4 × MIC, 2 h",<3 Log10 CFU/mL
same,"Viable counts, Staphylococcus aureus time kill study","Staphylococcus aureus; 4 × MIC, 4 h",<3 Log10 CFU/mL
same,"Viable counts, Staphylococcus aureus time kill study","Staphylococcus aureus; 4 × MIC, 6 h",<3 Log10 CFU/mL
same,"Viable counts, Staphylococcus aureus time kill study","Staphylococcus aureus; 4 × MIC, 24 h",<1 Log10 CFU/mL
same,"Viable counts, Staphylococcus aureus time kill study","Staphylococcus aureus; 4 × MIC, time 0",6.20 Log10 CFU/mL
same,"Viable counts, Escherichia coli time kill study","Escherichia coli; 1 × MIC, 1 h",1 Log10 CFU/mL
same,"Viable counts, Escherichia coli time kill study","Escherichia coli; 1 × MIC, 2 h",1 Log10 CFU/mL
same,"Viable counts, Escherichia coli time kill study","Escherichia coli; 1 × MIC, 4 h",<1 Log10 CFU/mL
same,"Viable counts, Escherichia coli time kill study","Escherichia coli; 1 × MIC, 6 h",2.18 Log10 CFU/mL
same,"Viable counts, Escherichia coli time kill study","Escherichia coli; 1 × MIC, 24 h",7.99 Log10 CFU/mL
same,"Viable counts, Escherichia coli time kill study","Escherichia coli; 1×MIC, time 0",5.06 Log10 CFU/mL
same,"Viable counts, Escherichia coli time kill study","Escherichia coli; 2 × MIC, 1 h",<1 Log10 CFU/mL
same,"Viable counts, Escherichia coli time kill study","Escherichia coli; 2 × MIC, 2 h",<1 Log10 CFU/mL
same,"Viable counts, Escherichia coli time kill study","Escherichia coli; 2 × MIC, 4 h",<1 Log10 CFU/mL
same,"Viable counts, Escherichia coli time kill study","Escherichia coli; 2 × MIC, 6 h",<1 Log10 CFU/mL
same,"Viable counts, Escherichia coli time kill study","Escherichia coli; 2 × MIC, 24 h",<1 Log10 CFU/mL
same,"Viable counts, Escherichia coli time kill study","Escherichia coli; 2 × MIC, time 0",5.18 Log10 CFU/mL
same,"Viable counts, Escherichia coli time kill study","Escherichia coli; 4 × MIC, 1 h",<1 Log10 CFU/mL
same,"Viable counts, Escherichia coli time kill study","Escherichia coli; 4 × MIC, 2 h",<1 Log10 CFU/mL
same,"Viable counts, Escherichia coli time kill study","Escherichia coli; 4 × MIC, 4 h",<1 Log10 CFU/mL
same,"Viable counts, Escherichia coli time kill study","Escherichia coli; 4 × MIC, 6 h",<1 Log10 CFU/mL
same,"Viable counts, Escherichia coli time kill study","Escherichia coli; 4 × MIC, 24 h",<1 Log10 CFU/mL
same,"Viable counts, Escherichia coli time kill study","Escherichia coli; 4 × MIC, time 0",5.12 Log10 CFU/mL
same,"Viable counts, Pseudomonas aeruginosa time kill study","Pseudomonas aeruginosa; 1 × MIC, 1 h",<1 Log10 CFU/mL
same,"Viable counts, Pseudomonas aeruginosa time kill study","Pseudomonas aeruginosa; 1 × MIC, 2 h",<1 Log10 CFU/mL
same,"Viable counts, Pseudomonas aeruginosa time kill study","Pseudomonas aeruginosa; 1 × MIC, 4 h",<1 Log10 CFU/mL
same,"Viable counts, Pseudomonas aeruginosa time kill study","Pseudomonas aeruginosa; 1 × MIC, 6 h",<1 Log10 CFU/mL
same,"Viable counts, Pseudomonas aeruginosa time kill study","Pseudomonas aeruginosa; 1 × MIC, 24 h",<1 Log10 CFU/mL
same,"Viable counts, Pseudomonas aeruginosa time kill study","Pseudomonas aeruginosa; 1×MIC, time 0",5.20 Log10 CFU/mL
same,"Viable counts, Pseudomonas aeruginosa time kill study","Pseudomonas aeruginosa; 2 × MIC, 1 h",<1 Log10 CFU/mL
same,"Viable counts, Pseudomonas aeruginosa time kill study","Pseudomonas aeruginosa; 2 × MIC, 2 h",<1 Log10 CFU/mL
same,"Viable counts, Pseudomonas aeruginosa time kill study","Pseudomonas aeruginosa; 2 × MIC, 4 h",<1 Log10 CFU/mL
same,"Viable counts, Pseudomonas aeruginosa time kill study","Pseudomonas aeruginosa; 2 × MIC, 6 h",<1 Log10 CFU/mL
same,"Viable counts, Pseudomonas aeruginosa time kill study","Pseudomonas aeruginosa; 2 × MIC, 24 h",<1 Log10 CFU/mL
same,"Viable counts, Pseudomonas aeruginosa time kill study","Pseudomonas aeruginosa; 2 × MIC, time 0",5.25 Log10 CFU/mL
same,"Viable counts, Pseudomonas aeruginosa time kill study","Pseudomonas aeruginosa; 4 × MIC, 1 h",<1 Log10 CFU/mL
same,"Viable counts, Pseudomonas aeruginosa time kill study","Pseudomonas aeruginosa; 4 × MIC, 2 h",<1 Log10 CFU/mL
same,"Viable counts, Pseudomonas aeruginosa time kill study","Pseudomonas aeruginosa; 4 × MIC, 4 h",<1 Log10 CFU/mL
same,"Viable counts, Pseudomonas aeruginosa time kill study","Pseudomonas aeruginosa; 4 × MIC, 6 h",<1 Log10 CFU/mL
same,"Viable counts, Pseudomonas aeruginosa time kill study","Pseudomonas aeruginosa; 4 × MIC, 24 h",<1 Log10 CFU/mL
same,"Viable counts, Pseudomonas aeruginosa time kill study","Pseudomonas aeruginosa; 4 × MIC, time 0",5.23 Log10 CFU/mL
